From article PMC12798769, “GArNet: A Genetic Algorithm-Based Protein Redesign Approach to Optimize Mutation Combinations Informed by Network Theory” (Journal of Chemical Information and Modeling, 2025)

Experiments:
[1] = biological target: T1, CnTDH (Cupriavidus necator, UniProt Q0K312, V11I/R67K/G69K/G263D/Q265E/D282Q, form not given); experiment: NADH formation at […] nm, Michaelis-Menten fit; assay type: biochemical; details: 0.1 M Gly-KOH pH 10.0; 2.5 mM NAD+; 0.0-40 mM L-threonine
T1 construct: gene H16_B0820; recombinant in E. coli BL21(DE3), His-tag (HisTrap; pET15b NdeI/BamHI for the designed variants), size-exclusion purified

[2] = biological target: T2, CnTDH (Cupriavidus necator, UniProt Q0K312, N14C/R31N/A62E/A160N/H177Y/A291K/A310K, form not given); experiment: NADH formation at […] nm, Michaelis-Menten fit; assay type: biochemical; details: 0.1 M Gly-KOH pH 10.0; 2.5 mM NAD+; 0.0-40 mM L-threonine
T2 construct: gene H16_B0820; recombinant in E. coli BL21(DE3), His-tag (HisTrap; pET15b NdeI/BamHI for the designed variants), size-exclusion purified

SMILES: C[C@@H](O)[C@H](N)C(=O)O [L-threonine]
- Km [1]: 11.6 ± 1.4 mM
- Km [2]: 17.4 ± 1.9 mM
